Laboratory results as given in patent US20260356841A1, “HETEROCYCLIC PYRIDINONE COMPOUNDS AS TRIGGERING RECEPTOR EXPRESSED ON MYELOID CELLS 2 AGONISTS AND METHODS OF USE” (Vigil Neuroscience, Inc., priority 2023, published 2026).

molecular target: T1, human TREM2 (Homo sapiens, UniProt Q9NZC2); assay: TREM2 agonist potency by cellular phosphorylation of Spleen Tyrosine Kinase (Syk), AlphaLisa, HEK293T-hTREM2 cells; type: cell-based; details: hTREM2 EC50 Data (HEK293 Cells); Syk phosphorylation, AlphaLisa; read-out: hTREM2 EC50
T1 construct: expressed in transfected cells; host or cells: HEK293T (HEK293T-hTREM2 cells)
Method in brief: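 HEK293T cells co-expressing human TREM2 and DAP12, plated 20–24 h before use. Compounds applied 45 min at room temperature in assay buffer, then cells lysed and phospho-Syk quantified by AlphaLisa. Percent activation from a standard curve; EC50 from a four-parameter variable-slope fit.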

T1 sequence (Q9NZC2 19-230): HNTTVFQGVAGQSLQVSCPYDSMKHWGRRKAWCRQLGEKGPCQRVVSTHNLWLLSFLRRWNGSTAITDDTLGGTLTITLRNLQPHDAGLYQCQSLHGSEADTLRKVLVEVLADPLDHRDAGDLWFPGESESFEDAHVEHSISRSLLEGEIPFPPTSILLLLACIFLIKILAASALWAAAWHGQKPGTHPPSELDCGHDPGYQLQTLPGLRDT
T1 sequence (O43914 22-113 partner): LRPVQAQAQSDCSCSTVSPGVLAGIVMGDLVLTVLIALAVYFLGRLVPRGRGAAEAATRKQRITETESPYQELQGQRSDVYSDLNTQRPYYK

EC50 [nM] | SMILES
< 100 | Cc1nc2nc([C@H]3CCO[C@@H](c4ccc(=O)n(N5CCCC5)c4)C3)nc(C34CC(C(F)(F)F)(C3)C4)c2nc1C [Example 209, 5-[(2R,4S)-4-[6,7-dimethyl-4-[3-(trifluoromethyl)-1-bicyclo[1.1.1]pentanyl]pteridin-2-yl]tetrahydropyran-2-yl]-1-pyrrolidin-1-yl-pyridin-2-one]
< 100 | Cc1nc2nc([C@H]3CCO[C@@H](c4ccc(=O)n(N5CC=CC5)c4)C3)nc(C34CC(C(F)(F)F)(C3)C4)c2nc1C [Example 210, 1-(2,5-dihydropyrrol-1-yl)-5-[(2R,4S)-4-[6,7-dimethyl-4-[3-(trifluoromethyl)-1-bicyclo[1.1.1]pentanyl]pteridin-2-yl]tetrahydropyran-2-yl]pyridin-2-one]
< 100 | CCCN(CCC)n1cc([C@H]2C[C@@H](c3nc(C45CC(C(F)(F)F)(C4)C5)c4nc(C)c(C)nc4n3)CCO2)ccc1=O [Example 211, 5-[(2R,4S)-4-[6,7-dimethyl-4-[3-(trifluoromethyl)-1-bicyclo[1.1.1]pentanyl]pteridin-2-yl]tetrahydropyran-2-y1]-1-(dipropylamino)pyridin-2-one]
< 100 | CCCNn1cc([C@H]2C[C@@H](c3nc(C45CC(C(F)(F)F)(C4)C5)c4nc(C)c(C)nc4n3)CCO2)ccc1=O [Example 212, 5-[(2R,4S)-4-[6,7-dimethyl-4-[3-(trifluoromethyl)-1-bicyclo[1.1.1]pentanyl]pteridin-2-yl]tetrahydropyran-2-yl]-1-(propylamino)pyridin-2-one]
< 100 | C=CC(=O)Nn1cc([C@H]2C[C@@H](c3nc(C45CC(C(F)(F)F)(C4)C5)c4nc(C)c(C)nc4n3)CCO2)ccc1=O [Example 213, N-[5-[(2R,4S)-4-[6,7-dimethyl-4-[3-(trifluoromethyl)-1-bicyclo[1.1.1]pentanyl]pteridin-2-yl]tetrahydropyran-2-yl]-2-oxo-1-pyridyl]prop-2-enamide]
< 100 | Cc1nc2nc([C@H]3CCO[C@@H](c4ccc(=O)n(NCC(F)F)c4)C3)nc(C34CC(C(F)(F)F)(C3)C4)c2nc1C [Example 214, 1-((2,2-difluoroethyl)amino)-5-((2R,4S)-4-(6,7-dimethyl-4-(3-(trifluoromethyl)bicyclo[1.1.1]pentan-1-yl)pteridin-2-yl)tetrahydro-2H-pyran-2-yl)pyridin-2(1H)-one]
< 100 | Cc1nc2nc([C@H]3CCO[C@@H](c4ccc(=O)n(N5CC6C(C5)C6(F)F)c4)C3)nc(C34CC(C(F)(F)F)(C3)C4)c2nc1C (stereo partly drawn) [Example 215, 1-(6,6-difluoro-3-azabicyclo[3.1.0]hexan-3-yl)-5-[(2R,4S)-4-[6,7-dimethyl-4-[3-(trifluoromethyl)-1-bicyclo[1.1.1]pentanyl]pteridin-2-yl]tetrahydropyran-2-yl]pyridin-2-one]
< 100 | Cc1nc2c(C34CC(C(F)(F)F)(C3)C4)nc(N3C[C@@H](C)O[C@@H](c4ccc(=O)n(C5CC5)c4)C3)nc2c(=O)n1C [Example 219]
< 100 | Cc1cc2c(C34CC(C(F)(F)F)(C3)C4)nc([C@H]3CCO[C@@H](c4ccc(=O)n(C)c4)C3)nc2nc1C [Example 324]
< 100 | Cc1nc2nc([C@H]3CCO[C@@H](c4ccc(=O)n(C)c4)C3)nc(C34CC(C(F)(F)F)(C3)C4)c2cc1C(F)(F)F [Example 326, 1-methyl-5-[(2R,4S)-4-[7-methyl-6-(trifluoromethyl)-4-[3-(trifluoromethyl)-1-bicyclo[1.1.1]pentanyl]pyrido[2,3-d]pyrimidin-2-yl]tetrahydropyran-2-yl]pyridin-2-one]
< 100 | Cc1nc2nc([C@H]3CCO[C@@H](c4ccc(=O)n(C5CC5)c4)C3)nc(C34CC(C(F)(F)F)(C3)C4)c2cc1C(F)(F)F [Example 328, 1-cyclopropyl-5-((2R,4S)-4-(7-methyl-6-(trifluoromethyl)-4-(3-(trifluoromethyl)bicyclo[1.1.1]-pentan-1-yl)pyrido[2,3-d]pyrimidin-2-yl)tetrahydro-2H-pyran-2-yl)pyridin-2(1H)-one]
< 100 | Cc1nc2nc([C@H]3CCO[C@@H](c4ccc(=O)[nH]c4)C3)nc(C34CC(C(F)(F)F)(C3)C4)c2cc1C(F)(F)F [Example 330, 5-((2R,4S)-4-(7-methyl-6-(trifluoromethyl)-4-(3-(trifluoromethyl)bicyclo[1.1.1]pentan-1-yl)pyrido[2,3-d]pyrimidin-2-yl)tetrahydro-2H-pyran-2-yl)pyridin-2(1H)-one]
< 100 | Cc1nc2nc([C@H]3CCO[C@@H](c4ccc(=O)n(N)c4)C3)nc(C34CC(C(F)(F)F)(C3)C4)c2cc1C(F)(F)F [Example 332, 1-amino-5-((2R,4S)-4-(7-methyl-6-(trifluoromethyl)-4-(3-(trifluoromethyl)bicyclo[1.1.1]pentan-1-yl)pyrido[2,3-d]pyrimidin-2-yl)tetrahydro-2H-pyran-2-yl)pyridin-2 (1H)-one]
< 100 | [2H]C([2H])([2H])n1cc([C@H]2C[C@@H](c3nc(C45CC(C(F)(F)F)(C4)C5)c4cc(C(F)(F)F)c(C)nc4n3)CCO2)ccc1=O [Example 334, 1-(methyl-d3)-5-((2R,4S)-4-(7-methyl-6-(trifluoromethyl)-4-(3-(trifluoromethyl)bicyclo[1.1.1]pentan-1-yl)pyrido[2,3-d]pyrimidin-2-yl)tetrahydro-2H-pyran-2-yl)pyridin-2(1H)-one]
< 100 | Cc1nc2nc([C@H]3CCO[C@@H](c4ccc(=O)n(N(C)C)c4)C3)nc(C34CC(C(F)(F)F)(C3)C4)c2cc1C(F)(F)F [Example 336, 1-(dimethylamino)-5-((2R,4S)-4-(7-methyl-6-(trifluoromethyl)-4-(3-(trifluoromethyl)bicyclo-[1.1.1]pentan-1-yl)pyrido[2,3-d]pyrimidin-2-yl)tetrahydro-2H-pyran-2-yl)pyridin-2 (1H)-one]
< 100 | CNn1cc([C@H]2C[C@@H](c3nc(C45CC(C(F)(F)F)(C4)C5)c4cc(C(F)(F)F)c(C)nc4n3)CCO2)ccc1=O [Example 338, 1-(methylamino)-5-((2R,4S)-4-(7-methyl-6-(trifluoromethyl)-4-(3-(trifluoromethyl)bicyclo-[1.1.1]pentan-1-yl)pyrido[2,3-d]pyrimidin-2-yl)tetrahydro-2H-pyran-2-yl)pyridin-2 (1H)-one]
> 500 | Cc1nc2nc([C@@H]3CCO[C@@H](c4ccc(=O)n(C)c4)C3)nc(-c3cc(F)c(C(F)(F)F)cc3F)c2nc1C [Example 348]
> 500 | Cc1nc2nc([C@@H]3CCO[C@H](c4ccc(=O)n(C)c4)C3)nc(-c3cc(F)c(C(F)(F)F)cc3F)c2nc1C [Example 349]
< 100 | Cc1nc2nc([C@H]3CCO[C@@H](c4ccc(=O)n(C)c4)C3)nc(-c3cc(F)c(C(F)(F)F)cc3F)c2nc1C [Example 350]
> 500 | Cc1noc(-c2cc3c(C45CC(C(F)(F)F)(C4)C5)nc([C@H]4CCO[C@@H](c5ccc(=O)n(C(F)F)c5)C4)nc3nc2C)n1 [Example 352]
< 100 | [2H]C([2H])([2H])c1nc2nc(C3CCOC(c4ccc(=O)n(C([2H])([2H])[2H])c4)C3)nc(C34CC(C(F)(F)F)(C3)C4)c2nc1C([2H])([2H])[2H] (centres unmarked) [Example 353]
< 100 | [2H]C([2H])([2H])n1cc([C@H]2CN(c3nc(C45CC(C(F)(F)F)(C4)C5)c4nc(C)c(C)nc4n3)C[C@@H](C)O2)ccc1=O [Example 354]
< 100 | Cc1nc2nc([C@H]3CCO[C@@H](c4ccc(=O)[nH]c4)C3)nc(C34CC(C(F)(F)F)(C3)C4)c2nc1C(F)(F)F [Example 355]
